From patent publication US8350027B2, “Dual-acting pyrazole antihypertensive agents” (Theravance, Inc., priority 2009, dated 2013)

Key:
[1] = target: T1, human AT1 receptor (Homo sapiens, UniProt P30556); assay: AT1 radioligand binding assay (displacement of [Eu]AngII); conditions: membranes of CHO-K1 cells expressing cloned human AT1 receptor; values given as lower bounds; read-out: AT1 pKi (converted)
T1 construct: expressed in transfected cells; host or cells: CHO-K1
T1 sequence (P30556 1-359): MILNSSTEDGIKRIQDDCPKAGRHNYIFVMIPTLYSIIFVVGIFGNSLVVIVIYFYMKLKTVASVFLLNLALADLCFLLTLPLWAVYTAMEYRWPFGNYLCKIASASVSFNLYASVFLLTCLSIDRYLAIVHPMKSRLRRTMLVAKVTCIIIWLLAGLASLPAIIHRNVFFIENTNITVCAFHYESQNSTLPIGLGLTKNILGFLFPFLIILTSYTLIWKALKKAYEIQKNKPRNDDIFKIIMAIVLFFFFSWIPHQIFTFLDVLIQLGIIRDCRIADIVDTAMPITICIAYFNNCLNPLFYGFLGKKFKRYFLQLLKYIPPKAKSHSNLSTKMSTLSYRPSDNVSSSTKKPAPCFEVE
Method: A. AT1 and AT2 Radioligand Binding Assays
These in vitro assays were used to assess the ability of test compounds to bind to the AT1 and the AT2 receptors.
Membrane Preparation from Cells Expressing Human AT1 or AT2 Receptors
Chinese hamster ovary (CHO-K1) derived cell lines stably expressing the cloned human AT1 or AT2 receptors, respectively, were grown in HAM's-F12 medium supplemented with 10% fetal bovine serum, 10 μg/ml penicillin/streptomycin, and 500 μg/ml geneticin in a 5% CO2 humidified incubator at 37° C. AT2 receptor expressing cells were grown in the additional presence of 100 nM PD123,319 (AT2 antagonist). When cultures reached 80-95% confluence, the cells were washed thoroughly in PBS and lifted with 5 mM EDTA. Cells were pelleted by centrifugation and snap frozen in MeOH-dry ice and stored at −80° C. until further use.
For membrane preparation, cell pellets were resuspended in lysis buffer (25 mM Tris/HCl pH 7.5 at 4° C., 1 mM EDTA, and one tablet of Complete Protease Inhibitor Cocktail Tablets with 2 mM EDTA per 50 mL buffer (Roche cat.#1697498, Roche Molecular Biochemicals, Indianapolis, Ind.)) and homogenized using a tight-fitting Dounce glass homogenizer (10 strokes) on ice. The homogenate was centrifuged at 1000×g, the supernatant was collected and centrifuged at 20,000×g. The final pellet was resuspended in membrane buffer (75 mM Tris/HCl pH 7.5, 12.5 mM MgCl2, 0.3 mM EDTA, 1 mM EGTA, 250 mM sucrose at 4° C.) and homogenized by extrusion through a 20G gauge needle. Protein concentration of the membrane suspension was determined by the method described in Bradford (1976) Anal Biochem. 72:248-54. Membranes were snap frozen in MeOH-dry ice and stored at −80° C. until further use.
Ligand Binding Assay to Determine Compound Affinities for the Human AT1 and AT2 Angiotensin Receptors
Binding assays were performed in 96-well Acrowell filter plates (Pall Inc., cat.#5020) in a total assay volume of 100 μL with 0.2 μg membrane protein for membranes containing the human AT1 receptor, or 2 μg membrane protein for membranes containing the human AT2 receptor in assay buffer (50 mM Tris/HCl pH 7.5 at 20° C., 5 mM MgCl2, 25 μM EDTA, 0.025% BSA). Saturation binding studies for determination of Kd values of the ligand were done using N-terminally Europium-labeled angiotensin-II ([Eu]AngII, H-(Eu-N^1)-Ahx-Asp-Arg-Val-Tyr-Ile-His-Pro-Phe-OH; PerkinElmer, Boston, Mass.) at 8 different concentrations ranging from 0.1 nM to 30 nM. […] Drugs were dissolved to a concentration of 1 mM in DMSO and from there serially diluted into assay buffer. Non-specific binding was determined in the presence of 10 μM unlabeled angiotensin-II. Assays were incubated for 120 minutes in the dark, at room temperature or 37° C., and binding reactions were terminated by rapid filtration through the Acrowell filter plates followed by three washes with 200 μL ice cold wash buffer (50 mM Tris/HCl pH 7.5 at 4° C., 5 mM MgCl2) using a Waters filtration manifold. Plates were tapped dry and incubated with 50 μl DELFIA Enhancement Solution (PerkinElmer cat.#4001-0010) at room temperature for 5 minutes on a shaker. Filter-bound [Eu]AngII was quantitated immediately on a Fusion plate reader (PerkinElmer) using Time Resolved Fluorescence (TRF). Binding data were analyzed by nonlinear regression analysis with the GraphPad Prism Software package (GraphPad Software, Inc., San Diego, Calif.) using the 3-parameter model for one-site competition. The BOTTOM (curve minimum) was fixed to the value for nonspecific binding, as determined in the presence of 10 μM angiotensin II. Ki values for drugs were calculated from observed IC50 values and the Kd value of [Eu]AngII according to the Cheng-Prusoff equation described in Cheng et al. (1973) Biochem Pharmacol. 22 (23):3099-108. Selectivities of test compounds for the AT1 receptor over the AT2 receptor were calculated as the ratio of AT2Ki/AT1Ki. […]

[2] = target: T2, NEP enzyme (Homo sapiens, UniProt P08473); assay: NEP enzyme inhibition assay (fluorogenic peptide substrate); assay type: biochemical; conditions: values given as lower bounds; * = prodrugs, may not exhibit NEP activity in an in vitro assay; read-out: NEP pIC50 (converted)
T2 construct: purchased R&D Systems, Minneapolis, Minn; 1182-ZN
T2 sequence (P08473 52-750 limits assumed): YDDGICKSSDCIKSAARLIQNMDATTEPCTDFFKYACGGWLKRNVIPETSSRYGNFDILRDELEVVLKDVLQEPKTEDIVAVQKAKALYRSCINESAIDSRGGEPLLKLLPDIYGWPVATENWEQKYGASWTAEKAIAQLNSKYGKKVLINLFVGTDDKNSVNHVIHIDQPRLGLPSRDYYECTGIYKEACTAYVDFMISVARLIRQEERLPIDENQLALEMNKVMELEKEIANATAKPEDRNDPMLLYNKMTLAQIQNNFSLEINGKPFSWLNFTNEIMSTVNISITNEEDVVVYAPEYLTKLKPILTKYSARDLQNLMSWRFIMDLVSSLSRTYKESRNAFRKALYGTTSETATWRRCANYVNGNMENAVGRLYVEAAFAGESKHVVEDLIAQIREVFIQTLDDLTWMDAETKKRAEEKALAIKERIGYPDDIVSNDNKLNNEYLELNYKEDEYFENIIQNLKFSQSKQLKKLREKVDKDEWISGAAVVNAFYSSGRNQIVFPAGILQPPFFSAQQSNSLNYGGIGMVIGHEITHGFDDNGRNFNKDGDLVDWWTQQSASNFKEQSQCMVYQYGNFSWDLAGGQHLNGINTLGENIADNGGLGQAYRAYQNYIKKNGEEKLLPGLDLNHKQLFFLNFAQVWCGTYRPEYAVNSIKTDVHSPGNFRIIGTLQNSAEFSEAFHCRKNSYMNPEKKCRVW
Method: B. In Vitro Assays for the Quantitation of Inhibitor Potencies (IC50) at Human and Rat NEP, and Human ACE
The inhibitory activities of compounds at human and rat NEP and human ACE were determined using in vitro assays as described below.
Recombinant human NEP and recombinant human ACE were obtained commercially (R&D Systems, Minneapolis, Minn., catalog numbers 1182-ZN and 929-ZN, respectively). The fluorogenic peptide substrate Mca-BK2 (Mca-Arg-Pro-Pro-Gly-Phe-Ser-Ala-Phe-Lys(Dnp)-OH; Johnson et al. (2000) Anal. Biochem. 286: 112-118) was used for the human NEP and ACE assays, and Mca-RRL (Mca-DArg-Arg-Leu-(Dnp)-OH; Medeiros et al. (1997) Braz. J. Med. Biol. Res. 30:1157-1162) was used for the rat NEP assay (both from Anaspec, San Jose, Calif.).
The assays were performed in 384-well white opaque plates at room temperature using the respective fluorogenic peptides at a concentration of 10 μM in assay buffer (50 mM Tris/HCl at 25° C., 100 mM NaCl, 0.01% Tween-20, 1 μM Zn, 0.025% BSA). […] The rat NEP enzyme preparation was used at a concentration that yielded quantitative proteolysis of 3 μM of Mca-RRL within 20 minutes at room temperature.
Test compounds were diluted to 12 concentrations from 10 μM to 20 pM in Assay Buffer. Assays were started by adding 25 μL of enzyme to 12.5 μL of test compound at each of the 12 concentrations. Test compounds were allowed to equilibrate with the enzyme for 10 minutes before 12.5 μL of the fluorogenic substrates were added to initiate the reaction. Reactions were terminated by the addition of 10 μL of 3.6% glacial acetic acid after 20 minutes of incubation.
For sulfhydryl-containing test compounds, the test compounds may be diluted in Assay Buffer containing a 400 μM concentration of tris(2-carboxyethyl)phosphine hydrochloride (Thermo Scientific, Rockford, Ill.) (TCEP). The test compounds are then incubated for 40 minutes at room temperature (to allow for dimer cleavage) before adding the enzyme. Test compounds are then allowed to equilibrate with the enzyme for 20 minutes before adding the fluorogenic substrates. Reactions are terminated as above.
Plates were read on a fluorometer with excitation and emission wavelengths set to 320 nm and 405 nm, respectively. Raw data (relative fluorescence units) were normalized to % activity from the average high readings (no inhibition, 100% enzyme activity) and average low readings (full inhibition, highest inhibitor concentration, 0% enzyme activity) using three standard NEP and ACE inhibitors, respectively. Nonlinear regression of the normalized data was performed using a one site competition model (GraphPad Software, Inc., San Diego, Calif.). Data were reported as pIC50 values.

Row | Compound | Ki [1] [nM] | IC50 [2] [nM]
1 | CCCc1cc(C(=O)N[C@@H](CS)Cc2ccccc2)nn1Cc1ccc(-c2ccccc2S(=O)(=O)NC(C)=O)nc1 [Example 14-3, 1-[6-(2-Acetylsulfamoyl-phenyl)pyridin-3-ylmethyl]-5-propyl-1H-pyrazole-3-carboxylic acid ((R)-1-benzyl-2-mercaptoethyl)amide] | ≤ 100 | ≤ 100
2 | CCCc1cc(C(=O)N[C@H](Cc2ccccc2)[C@@H](O)C(=O)O)nn1Cc1ccc(-c2ccccc2S(=O)(=O)NC(=O)[C@H](C)O)cc1 [Example 7-13, (2R,3R)-2-Hydroxy-3-({1-[2′-((S)-2-hydroxypropionylsulfamoyl)biphenyl-4-ylmethyl]-5-propyl-1H-pyrazole-3-carbonyl}amino)-4-phenylbutyric acid] | ≤ 10 | ≤ 100
3 | CCCc1cc(C(=O)N[C@@H](CC(=O)O)Cc2ccccc2Cl)nn1Cc1ccc(-c2ccccc2S(=O)(=O)NC(C)=O)nc1 [Example 14-14, (R)-3-({1-[6-(2-Acetylsulfamoylphenyl)-pyridin-3-ylmethyl]-5-propyl-1H-pyrazole-3-carbonyl}-amino)-4-(2-chlorophenyl)butyric acid] | ≤ 10 | ≤ 1000
4 | CCCc1cc(C(=O)N[C@@H](CC(=O)O)Cc2ccccc2Cl)nn1Cc1ccc(-c2ccccc2-c2nnn[nH]2)cc1 [Example 3-34, (R)-4-(2-Chlorophenyl)-3-({5-propyl-1-[2′-(1H-tetrazol-5-yl)biphenyl-4-ylmethyl]-1H-pyrazole-3-carbonyl}amino)butyric acid] | ≤ 10 | ≤ 10000
5 | CCCc1cc(C(=O)N[C@@H](CC(=O)O)Cc2ccccc2Br)nn1Cc1ccc(-c2ccccc2S(=O)(=O)NC(C)=O)cc1 [Example 6-8, (R)-3-{[1-(2′-Acetylsulfamoylbiphenyl-4-ylmethyl)-5-propyl-1H-pyrazole-3-carbonyl]amino}-4-(2-bromophenyl)butyric acid] | ≤ 10 | ≤ 1000
6 | CCCc1cc(C(=O)N[C@H](Cc2ccccc2)[C@@H](O)C(=O)O)nn1Cc1ccc(-c2ccccc2S(=O)(=O)NC(=O)C(C)(C)O)cc1 [Example 7-14, (2R,3R)-2-Hydroxy-3-({1-[2′-(2-hydroxy-2-methylpropionylsulfamoyl)biphenyl-4-ylmethyl]-5-propyl-1H-pyrazole-3-carbonyl}amino)-4-phenylbutyric acid] | ≤ 10 | ≤ 100
7 | CCCc1cc(C(=O)N[C@@H](Cc2ccccc2)CN(O)C=O)nn1Cc1ccc(-c2ccccc2S(=O)(=O)NC(C)=O)cc1 [Example 6-22, 1-(2′-Acetylsulfamoylbiphenyl-4-ylmethyl)-5-propyl-1H-pyrazole-3-carboxylic acid [(S)-1-benzyl-2-(formylhydroxyamino)ethyl]amide] | ≤ 10 | ≤ 100

Other lines, results leading:

Row | Ki [1] [nM] | IC50 [2] [nM] | Compound
8 | ≤ 100 | ≤ 100 | CCOc1cc(C(=O)N[C@@H](CS)CC(C)C)nn1Cc1ccc(-c2ccccc2-c2nnn[nH]2)cc1F [Example 3-38, 5-Ethoxy-1-[3-fluoro-2′-(1H-tetrazol-5-yl)biphenyl-4-ylmethyl]-1H-pyrazole-3-carboxylic acid ((R)-1-mercaptomethyl-3-methylbutyl)amide]
9 | ≤ 10 | ≤ 100 | CCCc1cc(C(=O)N[C@@H](CS)Cc2ccccc2)nn1Cc1ccc(-c2ccccc2-c2nnn[nH]2)cc1F [Example 3-2, 1-[3-Fluoro-2′-(1H-tetrazol-5-yl)biphenyl-4-ylmethyl]-5-propyl-1H-pyrazole-3-carboxylic acid ((R)-1-benzyl-2-mercaptoethyl)amide]
10 | ≤ 100 | ≤ 100 | CCCc1cc(C(=O)N[C@@H](CS)CC(C)C)nn1Cc1ccc(-c2ccccc2C(=O)O)cc1F [Example 9-1, 3′-Fluoro-4′-[3-((R)-1-mercaptomethyl-3-methylbutylcarbamoyl)-5-propylpyrazol-1-ylmethyl]biphenyl-2-carboxylic acid]
